Drawing on the NIST ThermoML archive (doi:10.1021/je034022n), this text covers mass density and speed of sound for 5 molecules.

The conditions of the series: 101.33 kPa, Liquid.

Numbers after ± are expanded uncertainties.

Usually mass density stands for the mass of a sample divided by its volume. What is called speed of sound is how fast a sound wave travels through the sample. Take `Cc1ccc(C)cc1` [1,4-dimethylbenzene]: the mass density (298.15 K) turned out to be 856.62 ± 1.4 kg/m3, the mass density (303.15 K) came to 852.25 ± 1.4 kg/m3, the mass density (308.15 K) is reported as 847.88 ± 1.5 kg/m3 and the mass density (313.15 K) amounted to 843.64 ± 1.5 kg/m3. Moreover, the speed of sound amounted to 1308 ± 6 m/s (298.15 K) and 1276 ± 6 m/s (308.15 K).

As to `CCCCOCCO` [2-butoxyethan-1-ol], the mass density is, setting by setting: (298.15 K) 896.25 ± 1.2 kg/m3; (303.15 K) 892.03 ± 1.2 kg/m3; (308.15 K) 888.91 ± 1.2 kg/m3; (313.15 K) 883.4 ± 1.2 kg/m3. The speed of sound was 1304 ± 6 m/s (298.15 K) and 1285 ± 6 m/s (308.15 K).

As to `c1ccccc1` [benzene], the mass density by setting is: (298.15 K) 873.61 ± 1.3 kg/m3; (303.15 K) 868.29 ± 1.3 kg/m3; (308.15 K) 862.96 ± 1.4 kg/m3; (313.15 K) 857.97 ± 1.4 kg/m3. Besides, the speed of sound by setting is: (298.15 K) 1299 ± 6 m/s; (308.15 K) 1260 ± 5 m/s.

As for `C=C(C)C(=O)OC` [methyl methacrylate], the mass density runs as follows: (298.15 K) 937.63 ± 0.92 kg/m3; (303.15 K) 931.74 ± 0.96 kg/m3; (308.15 K) 925.74 ± 1 kg/m3; (313.15 K) 920.26 ± 1 kg/m3. For the same molecule, the speed of sound (298.15 K) came to 1181 ± 5 m/s and the speed of sound (308.15 K) is 1153 ± 5 m/s.

For the molecule `Cc1ccccc1` [toluene], the mass density by setting is: (298.15 K) 862.2 ± 1.4 kg/m3; (303.15 K) 857.55 ± 1.4 kg/m3; (308.15 K) 852.86 ± 1.4 kg/m3; (313.15 K) 848.16 ± 1.5 kg/m3. Besides, the speed of sound was 1304 ± 6 m/s (298.15 K) and 1262 ± 5 m/s (308.15 K).
